This test addresses T1, CRTh2 receptor (Homo sapiens, UniProt Q9Y5Y4).
T1 construct: expressed in transfected cells
T1 sequence (Q9Y5Y4 1-395): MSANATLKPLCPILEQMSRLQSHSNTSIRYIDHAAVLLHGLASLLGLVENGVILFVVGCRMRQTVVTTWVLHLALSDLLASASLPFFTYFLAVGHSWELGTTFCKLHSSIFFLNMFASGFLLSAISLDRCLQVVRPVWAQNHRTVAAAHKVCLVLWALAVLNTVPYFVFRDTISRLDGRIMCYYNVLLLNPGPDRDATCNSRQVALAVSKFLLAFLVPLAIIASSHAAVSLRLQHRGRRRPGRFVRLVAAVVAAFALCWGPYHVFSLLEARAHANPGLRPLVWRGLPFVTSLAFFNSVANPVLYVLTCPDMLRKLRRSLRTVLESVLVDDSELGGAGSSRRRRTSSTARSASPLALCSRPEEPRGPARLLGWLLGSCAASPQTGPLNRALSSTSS
The test is described as follows: Intracellular calcium mobilisation (FLIPr, fluo-3AM), inhibition of the response to PGD2 in HEK-hrCRTh2-Gα16 cells. Type of test: cell-based. To be noted: antagonist affinity vs PGD2, pIC50 Cheng-Prusoff analysis, read-out: pA2 (converted). How it is done: Pharmacological Data—Intracellular Calcium Mobilisation
Human Embryonic Kidney Cells co-transfected with both the CRTh2 receptor and […] G-protein (HEK-hrCRTh2-G[…]16) are routinely cultured as monolayers in Dulbecco's Modified Eagles Medium (DMEM; Sigma) supplemented with 10% (v:v) heat inactivated foetal bovine serum (New Zealand sourced; Hyclone), 1% (v:v) non-essential amino acids (Gibco BRL), 1% (v:v) penicillin/streptomycin (Gibco BRL), 2 mM L-glutamine (Gibco BRL) and grown under 1 mg/ml […] Geneticin (Gibco BRL) antibiotic selection. Approximately 24 hours prior to the assay the cells are plated at a seeding density of 100,000 cells/well in 100 µl growth media into black walled 96 well Poly-D-Lysine coated plates (Becton Dickinson), with clear bottoms to allow cell inspection and fluorescence measurements from the bottom of each well. All cultures are maintained under standard tissue culture conditions (37° C. in a humidified atmosphere of 5% CO2).
To enable changes in intracellular calcium levels to be measured in HEK-hrCRTh2-Gα16 cells fluo-3AM is utilised as the fluorescent calcium indicator. A dye loading buffer is prepared which consists of a final concentration of 5 µM Fluo-3AM fluorescent cytoplasmic calcium indicator dye (Tef Labs), 2.2 µl/ml Pluronic F127 (Molecular Probes) to promote dye uptake, and 0.5 mM brilliant black (Sigma) to reduce background fluorescence in Balanced Salt Solution (BSS; 125 mM NaCl, 5.4 mM KCl, 16.2 mM NaHCO3, 0.8 mM MgCl2, 1 mM CaCl2, 20 mM HEPES, 1 mM NaH2PO4, 5.5 mM D-(+)-Glucose, 0.1% BSA and pH 7.4 with NaOH). […]
Test compounds are made up at a stock concentration of 10 mM in DMSO. The compounds to be evaluated are then prepared, by serial dilution in BSS buffer, to the required concentrations for inhibition dose response curves to be constructed. […] This allows the potency agonist (p[A]50) value to be determined for the HEK-hrCRTh2-Gα16 cells on any given day. Once the p[A]50 for PGD2 has been determined a separate assay plate containing 2×p[A]50 of PGD2 is prepared as the 2nd addition plate (or agonist plate). […]
In the case of `COc1ccc2c(c1)c(CC(=O)O)c(C)n2-c1ncnc2c(Cl)cc(Cl)cc12` [1-(6,8-dichloro-4-quinazolinyl)-5-methoxy-2-methyl-1H-indole-3-acetic acid], the Kb was 1000 nM.
On to `Cc1c(CC(=O)O)c2ccccc2n1-c1ncnc2cc(Cl)ccc12` [1-(7-chloro-4-quinazolinyl)-2-methyl-1H-indole-3-acetic acid], for which the Kb is 1580 nM.
The value for `Cc1c(CC(=O)O)c2cc(C(C)C)ccc2n1-c1ncnc2cc(Cl)ccc12` [1-(7-chloro-4-quinazolinyl)-2-methyl-5-(1-methylethyl)-1H-indole-3-acetic acid] was 158 nM.

For the origin of these results see patent US20050165033A1, “Use of indole-3-acetic acids in the treatment of asthma, copd and other diseases” (priority 2002, published 2005).
